≈ marks a conversion by molar mass, not a printed value.
Tests used:
P. aeruginosa ATCC 27853 = test: Anti-biofilm activity assay, purple violet microtiter method; format: cell-based, Pseudomonas aeruginosa; conditions: P. aeruginosa ATCC 27853 biofilm
Description: (§1) The inhibitory activity of the obtained compounds has been assessed on five microbial strains, respectively: E. coli ATCC 25922, P. aeruginosa ATCC 27853, S. aureus ATCC 25923, E. faecalis ATCC 29212 and C. albicans ATCC 90029, in a planktonic and adherent growth state.
(§2) The anti-biofilm activity assay was performed by the purple violet microtiter method, as previously described, allowing us to determine the minimal biofilm inhibitory concentration (MBEC). The same range of concentrations, as in the MIC assay, i.e., from 5 to 0.009 mg/mL has been tested.

E. coli ATCC 25922 [1] = test: MIC assay, serial two-fold microdilution in liquid medium; format: cell-based; conditions: Escherichia coli, ATCC25922; E. coli ATCC 25922, planktonic, 37 °C, 24 h; read-out: minimum inhibitory concentration (MIC)
Description: as §1
The MIC assay was performed by the serial two-fold microdilutions in a liquid medium, using a concentration range from 5 to 0.009 mg/mL and microbial suspensions of 0.5 MacFarland density. The wells containing only the microbial culture served as positive control and those containing the sterile culture medium as the negative control. The MIC values were read after incubation at 37 °C for 24 h.

E. faecalis ATCC 29212 [2] = test: Flow cytometry (FCM) membrane depolarization, DiBAC4(3); format: cell-based; conditions: for staining index value (SI): E. faecalis ATCC 29212, DiBAC4, 18–24 h
Description: The investigation of potential mechanisms of antimicrobial action by flow cytometry (FCM) was performed on microbial cultures obtained after 18–24 h of microbial cell incubation in the presence of subinhibitory concentrations of the analyzed compounds. Thus, microbial suspensions with a density of approximately 10^6 CFU/mL were prepared in sterile saline phosphate buffer from exponentially growing microbial cultures, obtained on a solid culture medium. Subinhibitory concentrations of the compounds were prepared in Muller–Hinton liquid culture medium and inoculated with an equal amount of microbial suspension and incubated for 18–24 h at 37 °C.
Microbial suspensions inoculated in a liquid medium were used as growth control. After incubation, the DiBAC4 fluorochrome solution [bis-(1,3-dibutylbarbituric acid) trimethinoxonol] Invitrogen/Life Technologies, Carlsbad, was added (0.5 μg/mL).
Fluorescence intensity (FI) was measured with an Accuri C6 plus flow cytometer in the FITC fluorescence channel. Growth control was used to locate the microbial cell population for fluorescence measurements. DiBAC4 dye was used to detect changes in the microbial membrane potential. […] A twofold increased fluorescence intensity (median fluorescence intensity = MFI) was considered to correspond to the depolarized microbial cells. For each subinhibitory concentration, a coloring index (CI) was calculated which represents the ratio of fluorescence intensity (FI) of treated versus untreated cells.

C. albicans ATCC 90029 [3] = test: Anti-biofilm activity assay, purple violet microtiter method; format: cell-based, Candida albicans; conditions: C. albicans ATCC 90029 biofilm
Description: as §1, §2

C. albicans ATCC 90029 [4] = test: MBC assay, plating on solid medium after MIC reading; format: cell-based; conditions: Candida albicans, ATCC90029, read-out: minimum bactericidal concentration (MBC)
Description: as §1
(§3) The MB assay was performed after reading the MIC values.

E. faecalis ATCC 29212 [5] = test: as above; format: cell-based; conditions: Enterococcus faecalis, ATCC29212, read-out: minimum bactericidal concentration (MBC)
Description: as §1, §3

S. aureus ATCC 25923 [6] = test: as above; format: cell-based; conditions: Staphylococcus aureus, ATCC25923, read-out: minimum bactericidal concentration (MBC)
Description: as §1, §3

E. coli ATCC 25922 [7] = test: Anti-biofilm activity assay, purple violet microtiter method; format: cell-based, Escherichia coli; conditions: E. coli ATCC 25922 biofilm
Description: as §1, §2

[8] = Scavenger activity towards ABTS•+ free radical; format: biochemical; conditions: 6 min; for IC50: linear regression over 25–1000 μM, mean ± SD of three, read-out: IC50 by means of ABTS•+ assay
Description: The method according to Re R. et al. was used to evaluate the scavenger capacity of the free radical.
The ABTS^•+ free radical resulted from the reaction between 2,2′-azinobis-(3-ethylbenzothiazoline-6-sulfonic acid) diammonium salt (7.4 mM) (solution 1) (Sigma-Aldrich, Germany) and potassium persulfate (2.6 mM) (solution 2) (Roth, Germany).
In order to obtain the ABTS^•+ free radical reagent, equal volumes of solutions 1 and 2 were mixed for 16 h. The obtained reagent was kept in the dark; 1 mL of the obtained solution was brought to a 50 mL volumetric flask and diluted with ethanol so that the absorbance at λ = 734 nm would be 0.700 ± 0.02.
The tested compounds were dissolved and diluted similar to the previous antioxidant assay. […]
The following formula was used for the calculation of the ABTS^•+ free radical scavenger activity (%) Inhibition %=Abst=0min−Abst=6min/Abst=0min×100 where: Abst = ABTS^•+ solution absorbance in the absence (0 min)/presence (6 min) of the tested compounds.
For both the above-mentioned methods, the antioxidant activity was expressed as IC50 values (μM) which represent the concentration of each compound for which the scavenging activity of free radicals is 50%. […]

[9] = In vitro cytotoxicity assay, IncuCyte S3 live-cell analysis; format: cell-based; conditions: human, 72-h period
Description: The cytotoxicity of the investigated compounds was tested using the IncuCyte Basic Analysiskit, allowing to calculate the IC50, against three tumoral cell lines, i.e., HeLa (cervical cancer cells), HT29 (colon adenocarcinoma) and MG63 (osteosarcoma). The selected metric of the concentration-response module was set on phase and confluence (%).
In our experiments, we used colorectal adenocarcinoma HT29 (ATCC HTB-38), cervical adenocarcinoma cells HeLa (ATCC CRM-CCL2), and osteosarcoma MG63 (ATCC CRL-1427). The cells were maintained in Dulbeco’s Modified Medium (DMEM): F12 (Thermo Fisher Scientific, Waltham, MA, USA) supplemented with 10% fetal bovine serum (FBS, Thermo Fisher Scientific, Waltham, MA, USA). For the in vitro evaluation of their cytotoxicity, the new derivatives were solubilized in DMSO at a concentration of 10 mg/mL and filtered with 0.22 µm Millex-GV Filter (Merck, Darmstadt, Germany). For cytotoxicity kinetics, the IncuCyte® S3 Live-Cell Analysis System (Sartorius, AG, Goettingen, Germany) was used. Briefly, 2 × 10^4 cells seeded in 96 well plates were treated with the new derivatives in a concentration ranging between 500 μg/mL and 3.9 μg/mL. The plates were placed in the IncuCyte® S3 Live-Cell Analysis System, and five images per well were taken every six h over a 72-h period and then processed, according to kit recommendations.

S. aureus ATCC 25923 [10] = test: Anti-biofilm activity assay, purple violet microtiter method; format: cell-based, Staphylococcus aureus; conditions: S. aureus ATCC 25923 biofilm
Description: as §1, §2

[11] = subinhibitory concentration tested 2.5 mg/mL
[12] = HT29 cells (colorectal adenocarcinoma), HT29, phase confluence (%)
[13] = HeLa cells (cervical adenocarcinoma), phase confluence (%)
[14] = MG63 cells (osteosarcoma), MG63, phase confluence (%)
[15] = subinhibitory concentration tested 1.25 mg/mL

Compound	minimum biofilm inhibitory concentration (MBIC) (P. aeruginosa ATCC 27853)	MIC (E. coli ATCC 25922 [1])	staining index value (SI) (E. faecalis ATCC 29212 [2]; [11])	minimum biofilm inhibitory concentration (MBIC) (C. albicans ATCC 90029 [3])	MBC (C. albicans ATCC 90029 [4])	MBC (E. faecalis ATCC 29212 [5])	MBC (S. aureus ATCC 25923 [6])	minimum biofilm inhibitory concentration (MBIC) (E. coli ATCC 25922 [7])	IC50 [8]	IC50 at 72 h [9, 12]	IC50 at 72 h [9, 13]	IC50 at 72 h [9, 14]	minimum biofilm inhibitory concentration (MBIC) (S. aureus ATCC 25923 [10])	ABTS•+ free radical scavenger activity ([8]; at 1000 μM)	changes in the membrane potential (E. faecalis ATCC 29212 [2]; E. faecalis ATCC 29212, subinhibitory concentration)	staining index value (SI) (E. faecalis ATCC 29212 [2]; [15])	ABTS•+ free radical scavenger activity ([8]; at 25 μM)
O=C(Nc1ccccc1)ON=C1c2ccccc2-c2ccccc21 [Compound 1a, 9-(phenylcarbamoyloxymino)fluoren]	0.009 mg/mL	2500 mg/L (≈ 7.95 mM)	2.21	0.312 mg/mL	5000 mg/L (≈ 15.9 mM)	5000 mg/L (≈ 15.9 mM)	5000 mg/L (≈ 15.9 mM)	0.625 mg/mL	9.8854 ± 0.000251 mM	11 ± 0.75 mg/L (≈ 0.035 mM)	7.52 ± 1.39 mg/L (≈ 0.0239 mM)	31.5 mg/L (≈ 0.1 mM)	5 mg/mL				
Cc1cccc(NC(=O)ON=C2c3ccccc3-c3ccccc32)c1 [Compound 1b, 9-((3-methyl-phenyl)carbamoyloximino)fluoren]	0.156 mg/mL	5000 mg/L (≈ 15.2 mM)	3.99	0.078 mg/mL	10000 mg/L (≈ 30.5 mM)	10000 mg/L (≈ 30.5 mM)	5000 mg/L (≈ 15.2 mM)	0.078 mg/mL	9.3794 ± 0.00102 mM	6.33 ± 3.02 mg/L (≈ 0.0193 mM)	8.5 ± 2.26 mg/L (≈ 0.0259 mM)	22 ± 2.48 mg/L (≈ 0.067 mM)	2.5 mg/mL	26.60%			
O=C(Nc1cccc(Cl)c1)ON=C1c2ccccc2-c2ccccc21 [Compound 1c, 9-((3-chloro-phenyl)carbamoyloxymino)fluoren]	1.25 mg/mL	2500 mg/L (≈ 7.17 mM)		0.312 mg/mL	10000 mg/L (≈ 28.7 mM)	5000 mg/L (≈ 14.3 mM)	5000 mg/L (≈ 14.3 mM)	1.25 mg/mL	18.2 mM	10.8 ± 1.36 mg/L (≈ 0.031 mM)	8.9 ± 2.56 mg/L (≈ 0.0255 mM)	22.8 ± 0.78 mg/L (≈ 0.0654 mM)	5 mg/mL		did not cause changes	0.32	12.53%
O=C(Nc1ccc(Cl)c(Cl)c1)ON=C1c2ccccc2-c2ccccc21 [Compound 1d, 9-((3,4-dichloro-phenyl)carbamoyloxymino)fluoren]	1.25 mg/mL	5000 mg/L (≈ 13 mM)		0.312 mg/mL	10000 mg/L (≈ 26.1 mM)	5000 mg/L (≈ 13 mM)	312 mg/L (≈ 0.814 mM)	0.625 mg/mL		8.17 ± 2.98 mg/L (≈ 0.0213 mM)	7.59 ± 3.64 mg/L (≈ 0.0198 mM)	26.3 ± 0.92 mg/L (≈ 0.0686 mM)	0.019 mg/mL			44.54	
